Laboratory results reported in patent US12458647B2, “Macrocyclic derivative and use thereof” (Guangzhou Joyo Pharmatech Co., Ltd., priority 2022, dated 2025).

Tests used:
[1] = tested on: p-ERK level in AsPC-1 cells; assay: Detection of p-ERK level in AsPC-1 cells (HTRF); type: cell-based; settings: 3 hours incubation; read-out: AsPC-1 pERK IC50
Description: AsPC-1 cells were purchased from ATCC: RPMI-1640 medium was purchased from Gibco; fetal bovine serum was purchased from Hyclone; Advanced Phospho-ERK1/2(THR202/TYR204) KIT was purchased from Bioauxilium-Advanced Phospho; ERK1/2(THR202/TYR204) KIT components were: Advanced PhosphoERK1/2 Eu Cryptate antibody, Advanced PhosphoERK1/2 d2 antibody, Blocking reagent (stock solution 100×), Lysis buffer #1 (stock solution 4×). Detection buffer (ready-to-use), with a storage temperature of ≤−16° C. for all.
(1) The cells were seeded in a white-bottomed 384-well cell culture plate, 8 μL of cell suspension per well, each well containing 7,500 cells. The cell plate was placed in a carbon dioxide incubator and incubated overnight at 37° C.;
(2) The test compound was diluted with 100% DMSO to 3 mM as the first concentration, and then diluted with a pipette to 10 concentrations of 3,000, 1,000, 300, 100, 30, 10, 3, 1, 0.3 and 0.1 μM. 2 μL of the compound was taken and added to 198 μL of cell starvation medium, mixed well, 15 μl, of compound solution was taken and added to 35 μL of cell starvation medium and mixed well. […]
(5) After incubation, a multilabel plate reader was used to read the HTRF excitation: 320 nm, emission: 615 nm, and 665 nm. […]

[2] = tested on: human lung bronchial benign NCI—H727 cells; assay: In vivo pharmacodynamic study, NCI-H727 subcutaneous xenograft tumor model in BALB/c nude mice; settings: gavage once daily
Description: To study the in vivo efficacy of a compound of the present disclosure on human lung bronchial benign NCI—H727 cells in a subcutaneous xenograft tumor model in BALB/c nude mice.
Laboratory animals: Female BALB/c nude mice, 6-8 weeks old, weighing 18-22 g; supplier Beijing Vital River Laboratory Animal Technology Co., Ltd.
(1) Cell culture: Human lung bronchial benign tumor cells were cultured in vitro in a monolayer, and the culture conditions were 10% fetal bovine serum added to Gibco RMPI1640 medium, incubated at 37° C. in a 5% CO2 incubator. Routine passage was performed twice a week with trypsin-EDTA for digestion. When the cell saturation was 80%-90% and the required number was reached, the cells were collected, counted, and inoculated.
(2) Tumour cell inoculation and grouping: 0.2 mL (2×10^6) of NCI—H727 cells (Matrigel was added in a volume ratio of 1:1) were inoculated subcutaneously into the right back of each mouse, and dosing was initiated when the mean tumor volume reached approximately 134 mm^3, with 6 animals in each group.
The vehicle was 5% DMSO/10% solutol/85% water. Control group: The vehicle was administered twice daily by gavage at a dose of 10 μL/g; treatment group: After dissolving the test compound in the vehicle, the compound was administered by gavage once daily.
(3) The tumor diameter was measured with a vernier caliper twice weekly, and the tumor volume(V) was calculated. The formula is: V=0.5a×b^2, where a and b are the long and short diameters of the tumor, respectively. The tumor inhibitory efficacy of the test compound was evaluated by the tumor growth inhibition rate (TGI). The calculation formula is: TGI %=1−(Mean tumor volume at the end of dosing in a treatment group−Mean tumor volume at the start of dosing in this treatment group)/(Mean tumor volume at the end of treatment in the vehicle control group−Mean tumor volume at the start of treatment in the vehicle control group)×100%.

[3] = 25 mg/kg on Days 1-6 and 1 mg/kg on Days 7-21, Day 21

CCn1c(-c2cc(N3CCN(C)CC3)cnc2C(C)OC)c2c3cc(ccc31)-c1csc(n1)CC(NC(=O)C1C(C)C1C)C(=O)N1NC(C(=O)OCC(C)(C)C2)C2CC1C2 (single isomer, unassigned) [Compound 6A] was tested, and the IC50 [1] was 0.3 nM, the “Tumour Volume (mm^3) Day 1” value ([2]; 5 mg/kg, Day 1) was 134.6 mm^3 and the “Tumour Volume (mm^3) Day 7” value ([2]; 5 mg/kg, Day 7) was 86.5 mm^3. For the same compound, the “Tumour Volume (mm^3) Day 14” value ([2]; 5 mg/kg, Day 14) was 78.5 mm^3, the “TGI (%)” value ([2]; 5 mg/kg, Day 21) was 104.4% and the “Tumour Volume (mm^3) Day 21” value ([2]; 5 mg/kg, Day 21) was 51.6 mm^3. For the same compound, the “Tumour Volume (mm^3) Day 1” value ([2]; 25 mg/kg on Days 1-6 and 1 mg/kg on Days 7-21, Day 1) was 134.5 mm^3, the “Tumour Volume (mm^3) Day 7” value ([2]; 25 mg/kg on Days 1-6 and 1 mg/kg on Days 7-21, Day 7) was 76.8 mm^3 and the “Tumour Volume (mm^3) Day 14” value ([2]; 25 mg/kg on Days 1-6 and 1 mg/kg on Days 7-21, Day 14) was 71.1 mm^3. The “TGI (%)” value [2, 3] was 103.2% and the “Tumour Volume (mm^3) Day 21” value [2, 3] was 75.1 mm^3.
